Patent publication EP1714676A2, “Use of N-substituted-1,5-dideoxy-1,5-imino-D-glucitol compounds for treating hepatitis virus infections” (G.D. Searle LLC., priority 1999, dated 1999)

Experiments:
[1] = test system: HepG2.2.15 cells; format: cell-based
[2] = test system: Hepatitis B Virus; assay: HBV secretion by chronically HBV secreting HepG2.2.15 cells (preS1 immunoprecipitation of secreted virions, PCR of viral DNA); format: cell-based; conditions: 3 days, control = 100%
Method: The anti-hepatitis B virus activity and effect on cell viability of a number of different N-substituted-1,5-dideoxy-1,5-imino-D-glucitol compounds were assessed using an in vitro assay employing chronically hepatitis B virus secreting HepG2.2.15 cells. The method employed was essentially that described in Block et al. (1994) Proc. Natl. Acad. Sci. USA 91:2235-2239.

[3] = test system: HepG 2.2.15 (2.2.15) cells; assay: IC-90 values taken as basis for the combostat serial dilutions; format: cell-based; conditions: Hepatitis B virus, HepG2.2.15; T. Block and G. Jacob, unpublished observation
Method: The anti-hepatitis B virus effect of […] (3TC) alone and in combination with N-nonyl-DNJ was determined according to Korba ((1996) Antiviral Research 29(1):49-51), using the "combostat" strategy (Comstat Program, Combostat Corp., Duluth, MN). The combostat method involves serially diluting the IC-90 of each compound. The IC-90 of N-nonyl-DNJ has been determined to be between 4 and 10 µg/ml (T. Block and G. Jacob, unpublished observation). The accepted IC-90 for 3TC in HepG 2.2.15 (2.2.15) cells is 300nM to 500nM (Doong et al. (1991) Proc. Natl. Acad. Sci. USA 88:8495-8499).

[4] = test system: woodchuck hepatitis virus (WHV); assay: Woodchuck model: total HBV DNA by quantitative PCR; format: in vivo; conditions: 0, 12.5, 25, 50, 100 mg/kg/day BID oral, 4 weeks
Method: (§1) Therefore, five groups of four animals each (all groups had both sexes, all but the control had two of each sex) were assigned to 0, 12.5, 25, 50, and 100 mg/kg/day with BID oral dosing. These were lab-reared wild animals. All animals were infected with woodchuck hepatitis virus (WHV) as neonates, and had been tested positive on serological tests for WHV surface antigen. Blood samples were drawn one week prior to dosing (-1 week), immediately before dosing (0 weeks), weekly during dosing (1, 2, 3, and 4 weeks), and after the end of dosing (5, 6, 8, and 10 weeks).
(§2) There are two measures of drug efficacy: reduction in total HBV DNA (measured by quantitative PCR), and reduction in HBV DNA from capsids with intact surface glycoproteins, which is the active form of the virus (measured by an ELISA-like immune precipitation assay followed by quantitative PCR).
The total HBV DNA levels were essentially constant over time within each animal (data not shown). There was a faint hint of a dose-response relationship with decreasing levels of virus with increasing levels of drug, except that three animals at the highest dose had very high virus levels. It is not possible to conclude that there is any relationship between dose of N-nonyl-DNJ and total HBV DNA. […]

[5] = test system: woodchuck hepatitis virus (WHV); assay: Woodchuck model: immune precipitated HBV DNA (IPDNA), immune precipitation followed by quantitative PCR; format: in vivo
Method: as §1, §2
Substantial variation existed in the IPDNA assay, both between assay runs and within assay runs (data not shown). Even so, it was possible to observe and model a slope over weeks 0-4 which is generally increasing for low dose animals and decreasing for high dose animals.
Before models are fitted to the data, a log transform was applied because: 1) the variation in IPDNA increases with increasing IPDNA values; the log transformation gives values with a nearly constant variation, and 2) it is expected that drug effects will appear as a constant multiplier of the IPDNA level. Because there are zero values of IPDNA, a small value (about 1/2 of the smallest non-zero value) was added to all values before the log transform.
Two approaches were used to model the changes in slope to week with dose of N-nonyl-DNJ: a linear modeling approach and a nonlinear model. Both approaches assume that the (linear) rate of change of the Log(IPDNA) measure over the dosing period is the "right" measure to reflect the effect of the drug on the virus. Both approaches are fit in stages, and the first stage is common to both approaches. First, a simple straight line regression model is fit using weeks 0-4 to predict log(IPDNA + 10) separately for each animal by run combination. In the second stage, the response variable is the slope fitted in the first stage.
For the linear approach, a model is fit with slope to week as the response where run is considered a block, dose has a significant effect (almost all of this effect is due to a slope to dose), and the relevant error for testing the effect of dose is the variation among animals treated alike (after the adjustment for the runs as blocks). This is similar to using the calibration data within each run to first adjust each run's data to a common virus DNA concentration; the difference is that here the data from the woodchucks are used for the run adjustment rather than only the calibration data.
For the nonlinear approach, a four parameter logistic model is fit with the slope to week as the response and the dose as the predictor. Again, run is considered a block, but because no run has all weeks, it is not possible to fully reflect the blocking in the nonlinear approach. […] The average maximum slope observed was 2.71 additional Log(IPDNA µg/mL)/week, or an increase of about […], the average minimum slope observed with N-nonyl-DNJ is 0.31 fewer Log (IPDNA µg/mL)/week), or about a decrease of about […]. The slopes, the fitted model, the parameter estimates from the model, and the approximate standard errors for these parameters are all shown in Figure 3. […] Whether in woodchucks or humans, the effective dose of both the N-alkyl-DNJ and nucleoside or nucleotide antiviral agent administered in combination therewith can be administered in two equal daily subdoses (i.e., B.I.D.).

[6] = concentration [200] (unit not given)
[7] = concentration [1000] (unit not given)

Row | Structure (SMILES) | appearance of cells by gross microscopic examination [1] | Relative amount of HBV secreted, as a % of control [2, 6] | Relative amount of HBV secreted, as a % of control [2, 7] | IC90 [3] [µg/mL] | effect on total HBV DNA measurements [4] | EC50 ([5]; four parameter logistic model, slope of Log(IPDNA + 10) to week vs dose) [mg/kg/BID dose] | average maximum slope observed ([5]; weeks 0-4 of dosing) | average minimum slope observed ([5]; weeks 0-4 of dosing) | decrease of IPDNA at average minimum slope ([5]; weeks 0-4 of dosing) | increase of IPDNA at average maximum slope ([5]; weeks 0-4 of dosing) | approximate effective monotherapy dose ([5]; woodchucks, oral)
1 | CCC(CC)CN1C[C@H](O)[C@@H](O)[C@H](O)[C@H]1CO [Compound 3, N-(2-ethylbutyl)-1,5-dideoxy-1,5-imino-D-glucitol] | unremarkable (healthy) | 5.0 +/-30 (n = 3) % | 5.0 +/-20(n = 3) % |  |  |  |  |  |  |  | 
2 | CCCCN1C[C@H](O)[C@@H](O)[C@H](O)[C@H]1CO [NBDNJ, N-(n-butyl-)-1,5-dideoxy-1,5-imino-D-glucitol, reference compound] |  | 37.0 +/-13(n = 15) % | 3.2 +/-5(n = 15) % |  |  |  |  |  |  |  | 
3 | CCCCCCCCCN1C[C@H](O)[C@@H](O)[C@H](O)[C@H]1CO [Compound 1, N-(n-nonyl)-1,5-dideoxy-1,5-imino-D-glucitol] |  |  |  | 4 to 10 | no effect | 7.88 | 2.71 additional Log(IPDNA µg/mL)/week | 0.31 fewer Log (IPDNA µg/mL)/week | about 25 %/week | about 150 %/week | about 16 mg/kg/day
